Results as given in patent US9403873B2, “Peptides targeting receptor activator of nuclear factor-κB (RANK) and their applications” (UNIVERSITE DE NANTES, priority 2011, dated 2016).
Ends that are not written are not given here. (PEG)5 = linear (PEG)5 polyethylene glycol chain at N-terminal amino acid

Legend:
hRANK = target: T1, hRANK (Homo sapiens, UniProt Q9Y6Q6); test: Surface plasmon resonance (Biacore) binding to immobilized RANK-Fc; details: SPR, 1:1 Langmuir model
T1 construct: For NMR experiments with soluble RANK receptor-Fc (R&D Systems); purchased R&D Systems
T1 sequence (Q9Y6Q6 30-212 limits assumed): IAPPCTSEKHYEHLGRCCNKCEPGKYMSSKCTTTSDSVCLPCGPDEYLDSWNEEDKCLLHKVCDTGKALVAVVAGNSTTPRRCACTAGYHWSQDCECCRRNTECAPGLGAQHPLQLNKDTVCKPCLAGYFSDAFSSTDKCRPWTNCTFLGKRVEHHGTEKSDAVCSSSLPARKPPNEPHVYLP
Procedure: Biosensor experiments were carried out on a BIAcore 3000 instrument (BIAcore) as published previously (Baud′Huin et al. 2009). Recombinant purified RANKL (2 μg/mL in 5 mM maleate, pH 5.75) or RANK-Fc carrier-free (5 μg/mL in sodium acetate buffer, pH 5.0) were covalently immobilized to the dextran matrix of a CM5 sensor chip (BIAcore) at a flow rate of 5 μL/min. Immobilization levels ranging from 400 to 3000 Response Units (RU) for RANKL or 5000 RU for RANK were obtained. Binding assays were performed at 25° C. in 10 mM Hepes buffer, pH 7.4. The association phase was 180 seconds followed by a dissociation phase in the same buffer. Polypeptides binding studies to RANK or RANKL were determined using single cycle kinetics, starting with 100 μM of the polypeptide of interest followed by 2-fold serial dilutions (ranging from 100 to 0.78 μM). The sensorgrams were fitted to calculate the equilibrium-dissociation constants using the Langmuir 1:1 model with BiaEval 4.1 software (BIAcore). RANK-Fc CF, RANKL and OPG carrier-free were obtained from R&D Systems (Minneapolis, Minn., USA).

[1] = system: ovariectomized C57BL/6 mice; test: Ovariectomy-induced bone loss in mice, micro-CT of tibiae and L4 vertebrae; type: in vivo, mouse; details: 35 days
Excerpt: Eight-week-old ovariectomized (OVX) female C57BL6 and non-ovariectomized control mice were purchased from Janvier (Le Genest Saint Ilsle, France). Mice were housed under pathogen-free conditions at the Experimental Therapy Unit (Faculty of Medicine, University of Nantes, France), and animal care and experimental protocols were approved by the French Ministry of Research and were done in accordance with the institutional guidelines of the French Ethical Committee and under the supervision of authorized investigators. After recovery from OVX surgery for 7 days and acclimation, the mice were randomly divided into treatment groups receiving daily subcutaneous injections of a peptide and a control group receiving daily injections of the vehicle (PBS) only. Non-ovariectomized or sham-operated mice were included in the studies as healthy controls. Three experimental protocols were established. Protocol 1: Ovariectomized mice received daily s.c. injections of 10 mg/kg body weight Pep8 (Pep8, n=8) or vehicle only (OVX, n=8). Non-ovariectomized (NOV, n=8) mice served as normal controls. Protocol 2: Ovariectomized mice were randomly divided into four groups (n=8), receiving daily treatments with pegylated Pep8 (Pep8-NPEG5) at 10 mg/kg or 2.5 mg/kg, or unpegylated Pep8 at a dose of 10 mg/kg/d, or the vehicle only. Sham-operated mice (n=5) served as healthy controls. Protocol 3: Ovariectomized mice receiving daily treatments with pegylated Pep8 (Pep8-NPEG8) at 10 mg/kg or 2.5 mg/kg, as described before, or unpegylated Pep8 at a lower dose of 2.5 mg/kg/d, or the vehicle only. Sham-operated mice (n=8) served as healthy controls.
During the experimental period, the body weight of the mice was monitored. […] After treatment for five weeks, mice were anesthetized with isoflurane (2%, 1 L/min) and sacrificed by cervical dislocation. Lumbar vertebrae and tibiae were collected for micro-CT analysis and stored at 4° C. in 4% paraformaldehyde until further analysis. Additionally, internal organs (heart, liver, lungs, kidneys, spleen, intestines and thymus) of some mice (n=3 per group) were harvested and stored for toxicity screening.
Analysis of architectural variables of tibiae and vertebrae of mice was performed using the high-resolution X-ray micro-CT system for small animal imaging SkyScan-1072 (SkyScan, Belgium). After scanning, the image data were transferred to a workstation and the proximal tibiae and the fourth lumbar vertebrae (L4) were rendered for 3-D display and calculation of the structural indices (Parfitt et al. 1987) using the SkyScan analysis system (CT-analyser, CT-volume, SkyScan). For trabecular bone parameters in tibiae, transverse CT slices were obtained in the region of interest in the axial direction from the trabecular bone ca. 0.1 mm below the growth plate to the mid-femur. Contours were defined and drawn close to the cortical bone. The trabecular bone was then removed and analyzed separately. Fifty slices (1 mm) at approximately […] distal to the growth plate of the proximal ends of the tibiae were used for analysis. […] The threshold level for the measurements was set at 55 for the analyses. The analysis of the specimens involved the following bone measurements: bone volume fraction (BV/TV, %), trabecular number (TbN), trabecular thickness (TbTh) and trabecular spacing (TbSp).

Row | Kd (hRANK; 25° C., pH 7.4, read-out: binding affinity (Kd) to hRANK) | kon (hRANK; read-out: association rate constant (kon)) | koff (hRANK; read-out: dissociation rate constant (koff)) | Substance | protection against OVX-induced trabecular bone loss (μCT, tibiae) ([1]; 2.5 mg/kg/d s.c.) | trabecular BV/TV and TbN, tibiae ([1]; 2.5 mg/kg/d, vs vehicle) | protection against OVX-induced trabecular bone loss (μCT) ([1]; 10 mg/kg/d s.c.)
1 | 20.6 µM | 13.5 M⁻¹ s⁻¹ | 0.000278 s⁻¹ | ELASYIIITQLG [Pep1, ELASYIIITQLG] | – | – | –
2 | – | – | – | Pep8-NPEG5: Pep8 carrying a linear (PEG)5 polyethylene glycol chain at the N-terminal amino acid ({(PEG)5}-NVLKLCSGE) | almost as effective | significantly increasing | attenuated bone loss in OVX mice to the same extent as treatment with the unpegylated peptide
